The source of these data is patent publication US20120129838A1, “Composition for Preventing and Treating Alopecia Disorder Containing Morgalanthamine Compounds as an Active Ingredient” (The Industry & Academic Cooperation in Chungnam National …, priority 2009, published 2012).

Experiment [1] has as its system rat vibrissa immortalized dermal papilla cell line. Kind of experiment: Proliferation of dermal papilla cells (MTT assay). Type of experiment: cell-based. The note with it: incubated for 4 days, absorbance at 540 nm. As to the method: A rat vibrissa immortalized dermal papilla cell line obtained by immortalizing dermal papilla cells isolated from rat whiskers (Filsell W, et al., Transfection of rat dermal papilla cells with a gene encoding a temperature-sensitive polyomavirus large T antigen generates cell lines a differentiated phenotype., J. Cell Sci, 107, pp. 1761-1772, 1994) was incubated at 37° C. in a DMEM (Hyclone Inc, USA) medium containing […] (Gibco Inc, NY, USA) and 10% heat-inactivated fetal bovine serum (FBS, Gibco Inc, NY, USA) using a 5% CO2 pyrostat, and subcultured every 3 days.
The cultured dermal papilla cells (1.0×10^4 cells/ml) were put into each well of a 96-well plate, and incubated for 24 hours. Then, a used culture solution was changed with a serum-free DMEM medium, and cultured again for 24 hours. Thereafter, the cultured solution was treated with 0.01 and 0.1 μM concentrations of the norgalanthamine compound of Experimental Example 1, and a 1 μM concentration of a positive control, minoxidil sulfate (M.S., Sigma, Mo., USA), respectively. The resulting mixture was incubated for 4 days, 50 μl of MTT (Sigma, Mo., USA) was added thereto, and the mixture was reacted for 4 hours. A supernatant was removed, and a pellet was dissolved in 200 μl of DMSO, and then measured for absorbance at 540 nm using a microplate reader (Amersham Pharmacia Biotech, NY, USA). An average absorbance value of each sample group was calculated, and a level of the hair proliferation was examined by comparing the average absorbance value with an absorbance value of the control.

Another experiment relates to rat vibrissa follicles. As to the kind of experiment: Growth of rat vibrissa follicles in organ culture. The note with it: time point of 21 days, isolated Wistar rat vibrissa follicles. On the procedure: In order to measure an effect of the norgalanthamine compound prepared in Experimental Example 1 on hair growth, the following experiment was performed using a method described in the publication (Philpott M P, et al., Cyclical changes in rat vibrissa follicles maintained in vitro. J Invest Dermatol. 115, pp. 1152-1155, 2000),
A 3-week-old male Wistar rat (Japan SLC, Hamamatsu, Japan) was purchased from Central Lab. Animal Inc. (Korea), anesthetized with ethyl ether, and killed by cervical vertebral dislocation. The left and right mystacial pads of the rat were extracted and put into an E/P buffer ((EBSS, Earle's balanced salts solution, Sigma Mo., USA)+(PBS, phosphate-buffered saline, Sigma Mo., USA)) supplemented with 100 units/ml penicillin and 100 μg/ml streptomycin (Gibco Inc, NY, USA). Vibrissa follicles were carefully isolated under a steroscopic dissecting microscope. Until the hair follicles were completely isolated, the hair follicles were put into a Petri dish containing an E/P buffer, and incubated at 37° C. for 1 hour in a 5% CO2 pyrostat. 500 μl of William E medium (Gibco Inc, NY, USA) containing 2 mM. L-glutamine (Gibco Inc, NY, USA), 10 μg/ml insulin (Sigma Mo., USA), 50 nM hydrocortisone (Sigma Mo., USA) and 100 units/ml penicillin-100 μg/ml streptomycin was put into each well of a 24-well plate, and one hair follicle was added to each well, and incubated at […] in a 5% CO2 pyrostat. 10 to 12 hair follicles were used in each experimental group, and a medium was changed with a fresh medium every 3 days during the incubation. […]
Photographs of shapes of vibrissa follicles were taken using a microscope (Olympus, Japan). Lengths of hair follicles were measured at time points of 0, 7, 14 and 21 days using an image analyzer (DP controller; Olympus, Japan). An average variation in lengths of the hair follicles was calculated, and a growth level was measured by comparing the average variation with an average length of the control.

Counter-ions that a name gives are not always drawn.

`Nc1cc(N2CCCCC2)nc(N)[n+]1OS(=O)(=O)[O-]` [minoxidil sulfate, reference compound]: in experiment [1] (1 μM, positive control), the “proliferation of dermal papilla cells compared to the control (100%)” value came out at 114.9±4.5%. For the same molecule, in the experiment on rat vibrissa follicles (1 uM, positive control), the “growth of hair fiber compared to that of the control (100%)” value came to 135.03±38.8%.
As for `COc1ccc2c3c1OC1C[C@@H](O)C=C[C@@]31CCNC2` (stereo partly drawn) [norgalanthamine], the “proliferation of dermal papilla cells compared to the control (100%)” value in experiment [1] (0.01 μM) is 114.0±4.3%; in experiment [1] (0.1 μM) it was 106.2±5.6%. In addition, the “growth of hair fiber compared to that of the control (100%)” value in the experiment with rat vibrissa follicles (0.01 uM) was found to be 128.7±13.8%; with rat vibrissa follicles (0.1 uM), 139.2±10.3%.
